# Reference: patent publication US9101567B2, “Suppression of cancer growth and metastasis using nordihydroguaiaretic acid derivatives with 7-hydroxystaurosporine” (The Johns Hopkins University, priority 2010, dated 2015)
# Assays:
# caspase-3 and 9 = experiment: Western blotting of cleaved caspase-3 and 9 in LNCaP cells; assay type: cell-based, human; settings: 17 hrs, M4N 80 μM, etoposide 10 μM, rapamycin 10 μM, UCN-01 2 μM
# Experimental: (§1) The sample volumes were adjusted by the total protein amount. Protein assay was performed by Bio-Rad Protein Assay (Bio-Rad Laboratories, Inc. Hercules, Calif.). The samples were resolved by the standard SDS-polyacrylamide gel electrophoresis and transferred to nitrocellulose membrane (Amersham Biosciences, Bjorkgatan, Sweden). The membranes were blocked with skim milk, and incubated with primary antibodies at 4° C. overnight and then with secondary antibody conjugated with horse radish peroxidase at room temperature for 2 hrs. The signals were detected by western blot chemiluminescence reagent plus (New England Nuclear Life Science Products, Boston, Mass.).
# (§2) The efficacy of the combination treatment of M4N with three anticancer drugs, etoposide, rapamycin, and UCN-01 to induce cell death was examined for LNCaP human prostate cancer cells with TUNEL assay. We chose these anticancer drugs trying to diversify the mechanisms in which the anticancer drugs work (43-45). […] Additionally the effect of caspase-3 and 7 inhibitor, zDEVD-fmk on the cell death induced by the combination treatment was examined (FIG. 1E).
# caspase-7 [1] = experiment: Enzymatic assay for caspase-7 in extracts of treated LNCaP cells; assay type: cell-based, human; settings: extracts of LNCaP cells treated for 13 hrs
# Experimental: The enzymatic assay specific for caspase-7 was performed using a CaspSELECT caspase-7 immunoassay kit (BioVision, Mountain View, Calif.). This assay is based on the […] assay with DEVD-afc. Since DEVD-afc can be a substrate for either caspase-3 or 7, only caspase-7 is selected from cell extracts by anti-caspase-7 antibody which is coated on microtiter plates. Briefly the microtiter plates were coated with anti-caspase-7 antibody overnight at 4 C and blocked with a blocking solution for 30 minutes at room temperature. The cell extracts were applied to the microtiter plates. After washing the microtiter plates, the substrate […] was added to the plates and incubated for about three hours. The fluorescence was measured by a microtiter plate fluorescence reader Infinite 200 (Tecan, Switzerland).
# as §2
# caspase-7 [2] = experiment: Western blotting of caspase-7 cleavage in HepG2 cells; assay type: cell-based, human; settings: HepG2, 17 hrs; M4N 80 μM, etoposide 20 μM, rapamycin 20 μM, UCN-01 5 μM
# Experimental: as §1
# The effect of the combination treatments on cell death and autophagy was examined in two cell lines other than LNCaP cells.
# LNCaP tumors = experiment: Nude mice orthotopically implanted with LNCaP tumors: life-span and lung metastasis; assay type: in vivo, nude (nu/nu) mice; settings: LNCaP tumor-bearing nude mice; lung sections, hematoxylin and eosin
# Experimental: T-cell deficient male nude mice (nu/nu) were obtained from Charles River Laboratories (Wilmington, Mass.). […] For drug combinations (M4N/etoposide, M4N/rapamycin, and M4N/UCN-01), etoposide, rapamycin, or UCN-01 powder was further added to M4N in CPE 25/30 to make a final concentration of M4N (10 mg/ml) respectively with etoposide (4 mg/ml), rapamycin (3.75 mg/ml), or UCN-01 (884 g/ml) in CPE 25/30 formulation. These drugs were intravenously injected into the tail vein of mice at the daily dose of 0.1 ml per mouse. Therefore dosages of each injection were 1 mg/shot (for M4N), 0.4 mg/shot (for etoposide), 0.375 mg/shot (for rapamycin), and 88.4 μg/shot (for UCN-01). The drug injections were performed once every day; beginning at day 3 until day 31 after tumor inoculation for the combination treatment with either etoposide or rapamycin and until day 25 after tumor inoculation for the combination treatment with UCN-01. After this the drugs were injected once a week for etoposide/rapamycin combination treatment and once every three days until day 35 for UCN-01 combination treatment.
# LNCaP cells growing subconfluently were collected into the tissue culture medium without fetal bovine serum and antibiotics. The cell concentration was adjusted by the same medium. […]
# [3] = test system: LNCaP human prostate cancer cells; experiment: TUNEL assay of cell death in LNCaP cells; assay type: cell-based; settings: 24 hrs, z-DEVD-fmk 50 μM
# Source text: LNCaP human prostate cancer, DU145 human prostate cancer, PC3 human prostate cancer, MCF-7 human breast cancer, MDA-MB-231 human breast cancer, MDA-MB-468 human breast cancer, HT29 human colon cancer, K562 human myelogenous leukaemia, HepG2 human hepatoma, Hep3B human hepatoma, and LN229 human glioblastoma cancer cell lines were purchased from American Type Culture Collection (Manassas, Va.). OC24 human ascites ovarian cancer cell line was a generous gift from Dr. XXX (Johns Hopkins University, MD). LNCaP cell line was cultured in RPMI1640 medium supplemented with glucose (14 mM), pyruvate (1 mM), and fetal bovine serum (FBS) (10%). DU145 cell line was cultured in MEM supplemented with non-essential amino acids, glucose (21 mM), pyruvate (1 mM), and FBS (10%). PC3 cell line was cultured in F-12K medium supplemented with FBS (10%). MCF-7 cell line was cultured in DMEM supplemented with FBS (10%). OC24 cell line was cultured in RPMI1640 medium supplemented with FBS (10%) as suspension culture. MDA-MB-231 and 468 cell lines were cultured in Leibovitz's L15 medium supplemented with FBS (10%) under air. HT29 cell line was cultured in DMEM supplemented with glucose (25 mM) and FBS (10%). K562 cell line was cultured in RPMI1640 supplemented with FBS (10%). HepG2 and Hep3B cell lines were cultured in MEM supplemented with FBS (10%). LN229 cell line was cultured in DMEM supplemented with FBS (5%). […]
Compound,expression of cleaved caspase-3 and 9 (caspase-3 and 9),caspase-7 activation (enzymatic activity) (caspase-7 [1]),caspase-7 cleavage product (caspase-7 [2]),mice with obvious lung metastasis (histology) (LNCaP tumors),effect on TUNEL-positive cell death induced by the combination treatments [3]
COc1cc([C@@H]2c3cc4c(cc3[C@@H](O[C@@H]3O[C@@H]5CO[C@@H](C)O[C@H]5[C@H](O)[C@H]3O)[C@H]3COC(=O)[C@H]23)OCO4)cc(OC)c1O [etoposide],didn't induce the cleavage,only a small amount,small amount,3 out of 5,
COC(=O)CC[C@H](NC(=O)[C@H](CC(=O)OC)NC(=O)OCc1ccccc1)C(=O)N[C@H](C(=O)N[C@@H](CC(=O)OC)C(=O)CF)C(C)C [zDEVD-fmk],,,,,inhibited a large portion of the cell death
